Entries after “also recorded” stand apart in the source; their conditions may differ.
What was measured:
[1] = system: brain; experiment: administration of xenon (inhalation): cerebral perfusion and oxygen supply in the brain; format: in vivo
[2] = e.g. long-term ventilation, current state of knowledge, cited from earlier work

SMILES: [Xe] [xenon]
- cerebral perfusion ([1]; administered xenon, available results): improvement in cerebral perfusion
- oxygen supply in the brain ([1]; administration of xenon or xenon-containing gases, in particular by inhalation): increased; also recorded: improved
- cerebral autoregulation ([1]; preliminary results): maintained or improved
- vasodilator action, especially capillary vasodilator in the capillary vascular system ([1]; preliminary results): acts as vasodilator
- side effects ([2]; prolonged administration): no side effects
- accumulation in the body ([2]; use as medicament): no accumulation
- metabolites formed in the body ([2]; use as medicament): no metabolites are formed

From patent publication US7235264B2, “Cerebral protection with a gas comprising xenon” (Air Liquide Deutschland GmbH, priority 2002, dated 2007)
